Laboratory results from patent publication US11661431B2, “Thienopyrrole compounds” (Gilead Sciences, Inc., priority 2021, dated 2023).

Experiments:
[1] = molecular target: TLR8 (Homo sapiens (Human), UniProt Q9NR97); assay: TLR8 human peripheral blood mononuclear cell (PBMC) cell-based assay (Compound A as agonist; TNFα and IL12p40 readout); details: human PBMCs, TLR8 agonist Compound A at 800 nM, 6 hours, antagonist potency; read-out: TLR-8 EC50
[2] = molecular target: TLR7 (Homo sapiens (Human), UniProt Q9NYK1); assay: TLR7 human peripheral blood mononuclear cell (PBMC) cell-based assay (GS-986 as agonist; IL-6 and IFNα readout); details: human PBMCs, TLR7 agonist GS-986 at 400 nM, 6 hours, antagonist potency; read-out: TLR-7 EC50
Method in brief: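 Human PBMCs (100,000 cells/well) preincubated 1 h at 37 °C with antagonist in 10-point dose response, then stimulated with TLR7 agonist for a further 6 h at 37 °C, 5% CO2. Supernatant IL-6 and IFNα measured by electrochemiluminescence immunoassay.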

Chain of TLR7 (Q9NYK1 27-1049): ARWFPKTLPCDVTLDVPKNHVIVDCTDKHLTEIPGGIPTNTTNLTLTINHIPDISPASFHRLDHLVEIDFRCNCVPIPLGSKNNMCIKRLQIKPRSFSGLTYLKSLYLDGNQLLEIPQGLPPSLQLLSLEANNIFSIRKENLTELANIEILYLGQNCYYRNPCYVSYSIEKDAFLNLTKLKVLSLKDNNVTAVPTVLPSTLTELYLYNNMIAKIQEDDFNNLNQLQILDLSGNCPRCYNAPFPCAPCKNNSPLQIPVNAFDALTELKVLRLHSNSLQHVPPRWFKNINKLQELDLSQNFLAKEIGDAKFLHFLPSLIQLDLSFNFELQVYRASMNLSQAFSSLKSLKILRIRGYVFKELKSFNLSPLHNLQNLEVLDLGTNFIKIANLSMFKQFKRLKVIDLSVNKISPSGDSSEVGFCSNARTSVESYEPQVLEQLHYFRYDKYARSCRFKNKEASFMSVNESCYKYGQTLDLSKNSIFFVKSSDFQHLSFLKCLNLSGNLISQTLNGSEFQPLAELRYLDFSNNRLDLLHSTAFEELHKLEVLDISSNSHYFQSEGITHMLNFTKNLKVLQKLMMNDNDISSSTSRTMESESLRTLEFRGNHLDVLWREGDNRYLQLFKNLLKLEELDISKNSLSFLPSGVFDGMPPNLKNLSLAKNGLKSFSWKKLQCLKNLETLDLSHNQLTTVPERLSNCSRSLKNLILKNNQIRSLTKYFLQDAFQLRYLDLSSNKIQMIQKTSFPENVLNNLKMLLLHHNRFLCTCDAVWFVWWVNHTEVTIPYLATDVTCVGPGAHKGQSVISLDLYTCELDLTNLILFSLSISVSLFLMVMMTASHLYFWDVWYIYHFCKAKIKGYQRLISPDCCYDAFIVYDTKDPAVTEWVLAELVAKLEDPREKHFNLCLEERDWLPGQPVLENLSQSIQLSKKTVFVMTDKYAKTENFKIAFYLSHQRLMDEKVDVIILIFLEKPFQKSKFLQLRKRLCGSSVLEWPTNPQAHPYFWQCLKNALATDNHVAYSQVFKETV
Chain of TLR8 (Q9NR97 27-1041): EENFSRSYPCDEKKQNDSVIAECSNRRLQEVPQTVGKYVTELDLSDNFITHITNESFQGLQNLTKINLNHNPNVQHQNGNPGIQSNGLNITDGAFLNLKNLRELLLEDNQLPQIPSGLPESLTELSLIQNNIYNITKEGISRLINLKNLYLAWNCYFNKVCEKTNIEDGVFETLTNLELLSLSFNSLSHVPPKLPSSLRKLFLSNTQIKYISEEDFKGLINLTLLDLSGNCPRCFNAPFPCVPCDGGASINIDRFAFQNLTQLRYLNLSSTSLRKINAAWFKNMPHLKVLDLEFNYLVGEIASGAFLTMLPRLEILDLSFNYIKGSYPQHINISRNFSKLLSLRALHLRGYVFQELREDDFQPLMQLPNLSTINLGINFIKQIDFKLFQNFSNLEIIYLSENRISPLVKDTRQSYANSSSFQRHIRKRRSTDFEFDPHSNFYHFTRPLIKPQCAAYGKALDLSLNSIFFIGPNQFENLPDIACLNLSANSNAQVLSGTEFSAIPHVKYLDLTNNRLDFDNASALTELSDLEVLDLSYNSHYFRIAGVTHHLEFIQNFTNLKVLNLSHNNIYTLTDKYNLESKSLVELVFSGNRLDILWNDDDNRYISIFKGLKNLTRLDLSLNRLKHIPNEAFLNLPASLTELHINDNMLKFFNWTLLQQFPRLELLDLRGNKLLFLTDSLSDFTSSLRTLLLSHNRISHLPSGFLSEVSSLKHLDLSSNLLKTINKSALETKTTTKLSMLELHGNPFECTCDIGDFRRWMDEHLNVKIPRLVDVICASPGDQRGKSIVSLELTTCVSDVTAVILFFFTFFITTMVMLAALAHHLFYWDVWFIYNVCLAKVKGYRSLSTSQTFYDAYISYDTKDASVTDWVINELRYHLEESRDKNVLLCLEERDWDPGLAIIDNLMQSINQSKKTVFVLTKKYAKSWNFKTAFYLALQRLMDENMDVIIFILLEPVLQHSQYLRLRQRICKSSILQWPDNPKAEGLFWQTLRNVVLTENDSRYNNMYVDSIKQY

| EC50 [1] [nM] | EC50 [2] [nM] | SMILES |
| --- | --- | --- |
| 1.86 | 0.09 | Cc1c([C@H]2C[C@H]3C[C@@H]2CN3CC(N)=O)sc2[nH]c(-c3cc(C)c4ncnn4c3)c(C(C)C)c12 [Example 145] |
| 19.5 | 1.19 | Cc1c(-c2[nH]c3sc(C4CCN(C(=O)[C@@H]5CC(F)(F)CCN5)CC4)c(C)c3c2C(C)C)cn2ncnc2c1C [Example 282] |
| 0.64 | 0.11 | Cc1c(-c2[nH]c3sc([C@@H]4C[C@@H]5C[C@H]4CN5)cc3c2C(C)C)cn2ncnc2c1C [Example 220] |
| 0.49 | 0.19 | Cc1c(C2CC3(CCCN3)C2)sc2[nH]c(-c3cc(C)c4ncnn4c3)c(C(C)C)c12 (centres unmarked) [Example 138] |
| 17.9 | 0.68 | Cc1nc2c(C)cc(-c3[nH]c4sc(C5CCN(C(=O)[C@@H]6COCCN6)CC5)c(C)c4c3C(C)C)cn2n1 [Example 136] |
| 16 | 0.23 | Cc1c(-c2[nH]c3sc([C@@H]4C[C@@H]5C[C@H]4CN5C(=O)[C@H]4C[C@@H](F)CN4)c(C)c3c2C(C)C)cn2ncnc2c1C [Example 147] |
| 0.41 | 0.13 | Cc1c(-c2[nH]c3sc([C@@H]4C[C@@H]5C[C@H]4CN5CC#N)c(C)c3c2C(C)C)cn2ncnc2c1C [Example 165] |
| 1.23 | 1.54 | Cc1c(-c2[nH]c3sc([C@@H]4C[C@@H]5C[C@H]4CN5CC(=O)NC4COC4)c(C)c3c2C(C)C)cn2ncnc2c1C [Example 274] |
| 13.8 | 2.17 | Cc1c(-c2[nH]c3sc(C4CCN(C(=O)[C@@H]5NCCO[C@H]5C)CC4)c(C)c3c2C(C)C)cn2ncnc2c1C [Example 281] |
| 30.9 | 2.23 | Cc1c(C2C[C@H]3CC[C@@H]2CN3)sc2[nH]c(-c3cc(C)c4ncnn4c3)c(C(C)C)c12 (some centres unmarked) [Example 189] |
| 1 | 4.14 | Cc1c(-c2[nH]c3sc(-c4cnc(C5CCN(CC(N)=O)CC5)nc4)c(C)c3c2C(C)C)cn2ncnc2c1C [Example 226] |
| 1.71 | 0.73 | Cc1c(C2CC3(CCCNC3)C2)sc2[nH]c(-c3cc(C)c4ncnn4c3)c(C(C)C)c12 (centres unmarked) [Example 137] |
| 24.3 | 3.41 | Cc1cc(-c2[nH]c3sc(C4CCN(CC(N)=O)CC4)c(C(F)F)c3c2C(C)C)cn2ncnc12 [Example 162] |
| 139 | 2.65 | Cc1c(-c2[nH]c3sc(C4CCN(C(=O)C5COC(C(F)(F)F)CN5)CC4)c(C)c3c2C(C)C)cn2ncnc2c1C (centres unmarked) [Example 283] |
| 29.2 | 2.31 | Cc1c(-c2[nH]c3sc(C4C[C@@H]5C[C@H]4CC5N4CCS(=O)(=O)CC4)c(C)c3c2C(C)C)cn2ncnc2c1C (some centres unmarked) [Example 256] |
| 2.03 | 0.25 | Cc1c(-c2[nH]c3sc(C4CCC5(CC4)CNCCO5)c(C)c3c2C(C)C)cn2ncnc2c1C (centres unmarked) [Example 144, 9-(5-(7,8-dimethyl-[1,2,4]triazolo[1,5-a]pyridin-6-yl)-4-isopropyl-3-methyl-6H-thieno[2,3-b]pyrrol-2-yl)-1-oxa-4-azaspiro[5.5]undecane] |
| 14.2 | 1.64 | Cc1c(-c2[nH]c3sc([C@@H]4C[C@@H]5C[C@H]4CN5C(=O)[C@@H]4C[C@@H](F)CN4)c(C)c3c2C(C)C)cn2ncnc2c1C [Example 150] |
| 0.61 | < 0.05 | Cc1c(-c2[nH]c3sc([C@@H]4C[C@@H]5C[C@H]4CN5C4CC5(CCNC5=O)C4)c(C)c3c2C(C)C)cn2ncnc2c1C (some centres unmarked) [Example 297] |
| 32.4 | 28.2 | Cc1c(-c2[nH]c3sc(C4CCC45CN(CC(N)=O)C5)c(C)c3c2C(C)C)cn2ncnc2c1C (single isomer, unassigned) [Example 315, 2-(5-(5-(7,8-dimethyl-[1,2,4]triazolo[1,5-a]pyridin-6-yl)-4 isopropyl-3-methyl-6H-thieno[2,3-b]pyrrol-2-yl)-2-azaspiro[3.3]heptan-2-yl)acetamide] |
| 29.8 | 1.74 | Cc1c(C23CC2CN(CC(N)=O)C3)sc2[nH]c(-c3cc(C)c4ncnn4c3)c(C(C)C)c12 (centres unmarked) [Example 197] |
| 2.33 | 0.72 | Cc1c(-c2[nH]c3sc(C4CCN(CC5CCN(C)C5=O)CC4)c(C)c3c2C(C)C)cn2ncnc2c1C (centres unmarked) [Example 289] |
| 13.8 | 3.52 | Cc1c([C@H]2C[C@H]3CC[C@@H]2CN3CC(N)=O)sc2[nH]c(-c3cc(C)c4ncnn4c3)c(C(C)C)c12 (single isomer, unassigned) [Example 190] |
| 1.16 | < 0.05 | Cc1c(-c2[nH]c3sc([C@@H]4C[C@@H]5C[C@H]4CN5C(CO)CO)c(C)c3c2C(C)C)cn2ncnc2c1C [Example 308, 2-((1S,4R,5R)-5-(5-(7,8-dimethyl-[1,2,4]triazolo[1,5-a]pyridin-6-yl)-4 isopropyl-3-methyl-6H-thieno[2,3-b]pyrrol-2-yl)-2-azabicyclo[2.2.1]heptan-2-yl)propane-1,3-diol] |
| 37.3 | 2.9 | Cc1c(-c2[nH]c3sc([C@H]4C[C@H](c5nnc([C@@H]6COCCN6)o5)C4)c(C)c3c2C(C)C)cn2ncnc2c1C (single isomer, unassigned) [Example 242] |

Second part, the compound before the results:

| SMILES | EC50 [1] [nM] | EC50 [2] [nM] |
| --- | --- | --- |
| Cc1c(-c2[nH]c3sc(C4CCN(C(=O)C5(N)COC5)CC4)c(C)c3c2C(C)C)cn2ncnc2c1C [Example 106] | 49.3 | 0.34 |
| Cc1c(C2CCN(C(=O)[C@H]3CCCN3)CC2)sc2[nH]c(-c3cc(C)c4ncnn4c3)c(C(C)C)c12 [Example 15] | 13.4 | 0.12 |
| Cc1c(-c2[nH]c3sc(C4CC5(CNC5)C4)c(C)c3c2C(C)C)cn2ncnc2c1C [Example 60] | 0.93 | 1.81 |
| Cc1c(C2CCN(C(=O)[C@@H]3COCCN3C)CC2)sc2[nH]c(-c3cc(C)c4ncnn4c3)c(C(C)C)c12 [Example 49] | 27.9 | 1.12 |
| Cc1c([C@H]2C[C@@H]3CN(CC(N)=O)C[C@@H]3C2)sc2[nH]c(-c3cc(C)c4ncnn4c3)c(C(C)C)c12 [Example 70, 2-((3aR,6aS)-5-(4-isopropyl-3-methyl-5-(8-methyl-[1,2,4]triazolo[1,5-a]pyridin-6-yl)-6H-thieno[2,3-b]pyrrol-2-yl)hexahydrocyclopenta[c]pyrrol-2(1H)-yl)acetamide] | 5.95 | 0.05 |
| Cc1c(-c2[nH]c3sc([C@@H]4C[C@@H]5C[C@H]4CN5C(C)C(N)=O)c(C)c3c2C(C)C)cn2ncnc2c1C (some centres unmarked) [Example 81] | 0.45 | 0.19 |
| Cc1c(-c2[nH]c3sc([C@H]4C[C@@H]5CC[C@H]4CN5CC(N)=O)c(C)c3c2C(C)C)cn2ncnc2c1C (single isomer, unassigned) [Example 96] | 6.75 | 0.83 |
| Cc1c(C2CCC3(C2)CN(CC(N)=O)C3)sc2[nH]c(-c3cc(C)c4ncnn4c3)c(C(C)C)c12 (centres unmarked) [Example 122] | 1.63 | 0.38 |
| Cc1c(-c2[nH]c3sc(C4CCN(C(=O)C5CN6CC7CC6(CO5)C7)CC4)c(C)c3c2C(C)C)cn2ncnc2c1C (centres unmarked) [Example 105] | 4.17 | < 0.05 |
| Cc1nc2c(C)cc(-c3[nH]c4sc([C@@H]5C[C@@H]6C[C@H]5CN6CC(N)=O)c(C)c4c3C(C)C)cn2n1 [Example 121] | 0.13 | < 0.05 |
| Cc1noc(C)c1CN1C[C@@H]2C[C@H]1C[C@H]2c1sc2[nH]c(-c3cn4ncnc4c(C)c3C)c(C(C)C)c2c1C [Example 120] | 1.1 | 0.09 |
| Cc1c(-c2[nH]c3sc(C4COC5(CCN(CC(N)=O)CC5)C4)c(C)c3c2C(C)C)cn2ncnc2c1C (centres unmarked) [Example 80] | 15.2 | 2.15 |
| Cc1c(C2CCN(C(C)C(N)=O)CC2)sc2[nH]c(-c3cc(C)c4ncnn4c3)c(C(C)C)c12 (centres unmarked) [Example 27] | 8.43 | 0.25 |
| Cc1c([C@@H]2C[C@@H]3CN(CC(N)=O)C[C@@H]3C2)sc2[nH]c(-c3cc(C)c4ncnn4c3)c(C(C)C)c12 [Example 71, 2-((3aR,6aS)-5-(4-isopropyl-3-methyl-5-(8-methyl-[1,2,4]triazolo[1,5-a]pyridin-6-yl)-6H-thieno[2,3-b]pyrrol-2-yl)hexahydrocyclopenta[c]pyrrol-2(1H)-yl)acetamide] | 7.75 | 0.45 |
| Cc1c(-c2[nH]c3sc([C@@H]4C[C@@H]5C[C@H]4CN5C(C)C(N)=O)c(C)c3c2C(C)C)cn2ncnc2c1C (single isomer, unassigned) [Example 101] | 0.73 | 0.32 |
| Cc1c(-c2[nH]c3sc(C4CCNCC4)c(C)c3c2C(C)C)cn2ncnc2c1C [Example 73] | 4.16 | 0.1 |
| Cc1cc(-c2[nH]c3sc(C4CCN(C(=O)[C@H]5COCCN5)CC4)cc3c2C(C)C)cn2ncnc12 [Example 57] | 15.5 | 0.27 |
| Cc1cc(-c2[nH]c3sc([C@H]4C[C@@]5(CCNC5)C4)c(C)c3c2C(C)C)cn2ncnc12 [Example 125] | 1.5 | 0.33 |
| Cc1c(C2CCN(C(=O)[C@@H]3CCCN3C)CC2)sc2[nH]c(-c3cc(C)c4ncnn4c3)c(C(C)C)c12 [Example 19] | 7.76 | 0.43 |
| Cc1c(C2CCN(C(=O)[C@H]3CC(F)(F)CN3)CC2)sc2[nH]c(-c3cc(C)c4ncnn4c3)c(C(C)C)c12 [Example 39] | 125 | 1.18 |
| Cc1c(-c2[nH]c3sc(C4CCN(C(=O)[C@@H]5CNCCO5)CC4)c(C)c3c2C(C)C)cn2ncnc2c1C [Example 109] | 3.45 | < 0.05 |
| Cc1c(-c2[nH]c3sc(C4C[C@H]5C[C@@H]4N(CC(N)=O)C5)c(C)c3c2C(C)C)cn2ncnc2c1C (some centres unmarked) [Example 114] | 2.71 | 0.44 |
